{"source": "patent US7893091B2", "about": "“Combination therapy for the treatment of urinary frequency, urinary urgency and urinary incontinence” (Merck Sharp & Dohme Corp., priority 2005, dated 2011)", "origin": "cited, not measured here", "key": {"C-fibers [1]": {"system": "C-fibers", "details": "instilled directly into the bladder"}, "rats [2]": {"system": "rats"}, "rats [3]": {"system": "rats", "remark": "listed apart in the source"}, "C-fibers [4]": {"system": "C-fibers", "details": "more potent than capsaicin"}, "isolated bladder strips": {"system": "isolated bladder strips", "details": "tissue bath"}}}
{"smiles": "COc1cc(CNC(=O)CCCC/C=C/C(C)C)ccc1O", "note": "[Capsaicin]", "values": [{"measurement": "beneficial effects (i.e. increased bladder capacity), share of patients", "setting": "C-fibers [1]", "value": "~70 % of patients"}]}
{"smiles": "C[C@H](Cc1ccc2c(c1)OC(C(=O)[O-])(C(=O)[O-])O2)NC[C@H](O)c1cccc(Cl)c1.[Na+].[Na+]", "note": "[CL316243]", "values": [{"measurement": "voiding interval in the hyperreflexia paradigms", "setting": "rats [2]; administered intravenously", "value": "dose-dependently normalizes voiding interval"}, {"measurement": "spontaneous bladder contractions in the detrusor instability paradigm", "setting": "rats [2]; administered orally", "value": "dose-dependent inhibition"}, {"measurement": "bladder pressure", "setting": "rats [2]; intravenous administration", "value": "reduces bladder pressure"}, {"measurement": "bladder capacity in cystomeric studies", "setting": "rats [2]; intravenous administration, prolongation of micturition interval without increasing residual urine volume", "value": "increases bladder capacity"}]}
{"smiles": "CC(=O)NC1(c2ccccc2)CCN(CC[C@H](CN(C)C(=O)c2ccccc2)c2ccc(Cl)c(Cl)c2)CC1", "note": "[SR 48968]", "values": [{"measurement": "response in cyclophosphamide-induced model of bladder overactivity", "setting": "rats [3]; 10 nmol/rat", "value": "moderate response"}]}
{"smiles": "COc1ccccc1CC(=N)N1C[C@@H]2C(=O)CCC(c3ccccc3)(c3ccccc3)[C@@H]2C1", "note": "[RP 67580]", "values": [{"measurement": "volume threshold in cyclophosphamide-induced model of bladder overactivity", "setting": "rats [3]; rats, i.t. versus i.v. administration", "value": "increased the volume threshold after i.t., but not i.v. administration"}]}
{"smiles": "C=C(C)[C@]12C[C@@H](C)[C@@]34O[C@](Cc5ccccc5)(O[C@@H]1[C@@H]3C=C(COC(=O)Cc1ccc(O)c(OC)c1)C[C@]1(O)C(=O)C(C)=C[C@@H]41)O2", "note": "[Resinferatoxin]", "values": [{"measurement": "potency relative to capsaicin", "setting": "C-fibers [4]", "value": "~100", "unit": "fold"}]}
{"smiles": "Cc1ccc(-c2c3n(c(=O)c4ncccc24)CC[C@@H](C)CN(Cc2cc(C(F)(F)F)cc(C(F)(F)F)c2)C3=O)cc1", "note": "[TAK-637]", "values": [{"measurement": "micturition reflex induced by topical application of capsaicin onto the surface of the bladder dome", "setting": "guinea pig", "value": "inhibited"}, {"measurement": "distension-induced rhythmic bladder contractions", "setting": "guinea pig; systemic administration", "value": "decreased the number but not the amplitude"}, {"measurement": "micturition reflex induced by electrical stimulation of the rostral brainstem near the locus coeruleus", "setting": "decerebrate cats; 3 mg/kg i.v.", "value": "did not inhibit"}, {"measurement": "voiding efficiency", "setting": "decerebrate cats; decerebrate cats, 0.1, 0.3, 1 and 3 mg/kg i.v.", "value": "without any significant reduction"}, {"measurement": "increase in bladder capacity (maximal increase)", "setting": "decerebrate cats; decerebrate cats, 0.1, 0.3, 1 and 3 mg/kg i.v., dose-dependent", "value": 94, "unit": "%"}, {"measurement": "carbachol or electrical field stimulation induced contractions of isolated bladder strips", "setting": "isolated bladder strips", "value": "had no effect"}]}
